From PMC12446476 (Nature Communications, 2025)
Converted amounts (≈) assume the structure as drawn. “And” between values parts separate entries of the source, which are not always exact repeats. Equal entries are not always repeated. Where two headings read alike, the source gives them in different places.

Assays:
[1] = test system: Salmonella typhimurium (TA1535, TA1537, TA98 and TA100); assay type: cell-based
Procedure: Ames assays were performed using four strains of Salmonella typhimurium (TA1535, TA1537, TA98 and TA100) and a single strain of E. coli (WRP2 uvrA) in the presence and absence of S9 tissue homogenate. Dose levels (µg/plate) up to 4000 were assessed for WP2 uvrA and TA98, 500 for TA1535, 250 for TA1537 and 62.5 for TA100.

N. gonorrhoeae = assay: MIC determination, agar dilution (CLSI); assay type: cell-based, Neisseria gonorrhoeae
From the text: The 2024 WHO N. gonorrhoeae reference strains were used for quality control. Only whole MIC doubling dilutions are reported. Clinical breakpoints or the epidemiological cutoff (ECOFF, to indicate azithromycin resistance) from EUCAST (v14.0, https://www.eucast.org/clinical_breakpoints) were used to classify isolates as antimicrobial susceptible or resistant. […] Two times the standard inoculum defined by CLSI was used to establish consistent growth in untreated control samples for some strains. In vitro time-kill assays were performed according to CLSI guidelines[65] using Columbia Broth (BD Difco) supplemented with 1% IsoVitaleX Enrichment (BD). Viable bacterial counts were generated by plating 10-fold serially diluted samples on GC agar plates containing 1% IsoVitaleX Enrichment (BD).

[2] = TA98, without S9, positive control 2 µg/plate
[3] = TA1537, without S9, positive control 50 µg/plate
[4] = screening panel N. gonorrhoeae isolate A
[5] = screening panel N. gonorrhoeae isolate B
[6] = screening panel N. gonorrhoeae isolate C
[7] = screening panel N. gonorrhoeae isolate D
[8] = screening panel N. gonorrhoeae isolate E
[9] = screening panel N. gonorrhoeae isolate F
[10] = screening panel N. gonorrhoeae isolate G
[11] = screening panel N. gonorrhoeae isolate H
[12] = screening panel N. gonorrhoeae isolate I
[13] = screening panel N. gonorrhoeae isolate J
[14] = screening panel N. gonorrhoeae isolate K
[15] = screening panel N. gonorrhoeae isolate L
[16] = screening panel N. gonorrhoeae isolate M
[17] = screening panel N. gonorrhoeae isolate N
[18] = TA100, without S9, positive control 1 µg/plate
[19] = TA1535, without S9, positive control 1 µg/plate

Row | Structure (SMILES) | Minimum inhibitory concentration (N. gonorrhoeae; [4]) [µg/mL] | Minimum inhibitory concentration (N. gonorrhoeae; [5]) [µg/mL] | Minimum inhibitory concentration (N. gonorrhoeae; [6]) [µg/mL] | Minimum inhibitory concentration (N. gonorrhoeae; [7]) [µg/mL] | Minimum inhibitory concentration (N. gonorrhoeae; [8]) [µg/mL] | Minimum inhibitory concentration (N. gonorrhoeae; [9]) [µg/mL] | Minimum inhibitory concentration (N. gonorrhoeae; [10]) [µg/mL] | Minimum inhibitory concentration (N. gonorrhoeae; [11]) [µg/mL] | Minimum inhibitory concentration (N. gonorrhoeae; [12]) [µg/mL] | Minimum inhibitory concentration (N. gonorrhoeae; [13]) [µg/mL] | Minimum inhibitory concentration (N. gonorrhoeae; [14]) [µg/mL] | Minimum inhibitory concentration (N. gonorrhoeae; [15]) [µg/mL] | Minimum inhibitory concentration (N. gonorrhoeae; [16]) [µg/mL] | Minimum inhibitory concentration (N. gonorrhoeae; [17]) [µg/mL] | further results
1 | O=[N+]([O-])c1ccc2c(c1)Cc1ccccc1-2 [2-Nitrofluorene, reference compound] |  |  |  |  |  |  |  |  |  |  |  |  |  |  | Ames bacterial mutation assessment, Mean [1, 2]: 173; Colony count [1, 2]: 177 and 172 and 169
2 | Nc1c2ccccc2nc2ccccc12 [9-Aminoacridine, reference compound] |  |  |  |  |  |  |  |  |  |  |  |  |  |  | Ames bacterial mutation assessment, Mean [1, 3]: 142; Colony count [1, 3]: 128 and 153 and 146
3 | O=C1CCNc2cc(C=CC(=O)N3CC4C=C(c5ccccc5)CC4C3)cnc2N1 (stereo not shown) [Compound 3] | 4 (≈ 9.99 µM) | 2 (≈ 4.99 µM) | 1 (≈ 2.5 µM) | 2 (≈ 4.99 µM) | 1 (≈ 2.5 µM) | 4 (≈ 9.99 µM) | 4 (≈ 9.99 µM) | 4 (≈ 9.99 µM) | 2 (≈ 4.99 µM) | 2 (≈ 4.99 µM) | >8 | 2 (≈ 4.99 µM) | 2 (≈ 4.99 µM) | 1 (≈ 2.5 µM) | 
4 | O=C1CCNc2cc(/C=C/C(=O)N3CCC=C(c4ccccc4)CC3)cnc2N1 [Compound 4] | 4 (≈ 10.3 µM) | 2 (≈ 5.15 µM) | 2 (≈ 5.15 µM) | 2 (≈ 5.15 µM) | 1 (≈ 2.57 µM) | 4 (≈ 10.3 µM) | 4 (≈ 10.3 µM) | 4 (≈ 10.3 µM) | 2 (≈ 5.15 µM) | 2 (≈ 5.15 µM) | 4 (≈ 10.3 µM) | 2 (≈ 5.15 µM) | 2 (≈ 5.15 µM) | 1 (≈ 2.57 µM) | 
5 | Cc1oc2ccccc2c1CN(C)C(=O)/C=C/c1cnc2c(c1)NCCC(=O)N2 [Compound 5] | 1 (≈ 2.56 µM) | 1 (≈ 2.56 µM) | 1 (≈ 2.56 µM) | 1 (≈ 2.56 µM) | 0.5 (≈ 1.28 µM) | 2 (≈ 5.12 µM) | 2 (≈ 5.12 µM) | 2 (≈ 5.12 µM) | 0.5 (≈ 1.28 µM) | 1 (≈ 2.56 µM) | 2 (≈ 5.12 µM) | 1 (≈ 2.56 µM) | 1 (≈ 2.56 µM) | 0.5 (≈ 1.28 µM) | 
6 | Cc1c(CN(C)C(=O)/C=C/c2cnc3c(c2)N[C@@H](C)[C@@H](O)C(=O)N3)oc2ccccc12 [Compound 9] | 2 (≈ 4.76 µM) | 1 (≈ 2.38 µM) | 1 (≈ 2.38 µM) | 1 (≈ 2.38 µM) | ≤0.5 | 2 (≈ 4.76 µM) | 2 (≈ 4.76 µM) | 2 (≈ 4.76 µM) | 1 (≈ 2.38 µM) | 1 (≈ 2.38 µM) | 2 (≈ 4.76 µM) | 1 (≈ 2.38 µM) | 1 (≈ 2.38 µM) | 1 (≈ 2.38 µM) | 
7 | [N-]=[N+]=[N-].[Na+] [Sodium azide, reference compound] |  |  |  |  |  |  |  |  |  |  |  |  |  |  | Ames bacterial mutation assessment, Mean [1, 18]: 555; Colony count [1, 18]: 508 and 554 and 602; Ames bacterial mutation assessment, Mean [1, 19]: 433; Colony count [1, 19]: 428 and 408 and 464
